The text below walks through data of ChEMBL document CHEMBL5252536, “Discovery of VU0467485/AZ13713945: An M4 PAM Evaluated as a Preclinical Candidate for the Treatment of Schizophrenia” (ACS Med Chem Lett, 2017).

A value given as a limit tells only on which side of the number the result lay.

Data set [1] is described as follows: Volume of distribution at steady state in Sprague-Dawley rat at 3 mg/kg,po or 1 mg/kg,iv by LC-MS/MS analysis. The data set is classed as ADME, organism-based. The conditions noted are these: in vivo.
For data set [2], the target named is T1, Muscarinic acetylcholine receptor M4 (Rattus norvegicus) (UniProt P08485).
T1 sequence (whole entry): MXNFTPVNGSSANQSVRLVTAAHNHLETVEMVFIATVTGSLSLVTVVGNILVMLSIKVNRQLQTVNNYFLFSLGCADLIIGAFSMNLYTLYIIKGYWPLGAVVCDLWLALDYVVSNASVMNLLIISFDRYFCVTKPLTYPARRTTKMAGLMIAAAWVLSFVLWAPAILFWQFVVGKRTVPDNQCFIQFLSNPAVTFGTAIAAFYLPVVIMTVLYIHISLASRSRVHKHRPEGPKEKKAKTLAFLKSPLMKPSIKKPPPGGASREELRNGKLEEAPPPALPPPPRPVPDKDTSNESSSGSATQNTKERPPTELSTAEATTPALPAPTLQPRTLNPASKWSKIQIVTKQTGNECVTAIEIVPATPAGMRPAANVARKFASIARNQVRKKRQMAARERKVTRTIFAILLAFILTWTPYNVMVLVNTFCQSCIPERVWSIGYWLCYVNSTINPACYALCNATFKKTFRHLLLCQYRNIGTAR
Nature of the data set: Positive allosteric modulator activity at rat M4 receptor expressed in CHO cells co-expressing Gqi5 assessed as maximal response to ACh by calcium mobilization assay relative to contol. The conditions noted are these: filed as positive allosteric modulator. In kind it is cell-based.

The test system of another data set is CHO. Nature of the data set: Positive allosteric modulator activity at dog M4 receptor expressed in CHO cells co-expressing Gqi5 assessed as maximal response to ACh by calcium mobilization assay relative to contol. The data set is classed as cell-based. As to conditions: Canis lupus familiaris, filed as positive allosteric modulator. For orientation: Calcium assays in cells follow changes in intracellular calcium, usually with a dye or a luminescent sensor.

Data set [3] can be described thus: Positive allosteric modulator activity at dog M2 receptor expressed in CHO cells co-expressing Gqi5 assessed as maximal response to ACh by calcium mobilization assay. The data set is classed as cell-based.
The nature of data set [4]: Positive allosteric modulator activity at cynomolgus monkey M2 receptor expressed in CHO cells co-expressing Gqi5 in presence of EC20 concentration of acetylcholine by calcium mobilization assay. In kind it is cell-based. The conditions noted are these: Macaca fascicularis.
Data set [5] has as its target T2, Cytochrome P450 2C9 (Homo sapiens, UniProt P11712). The data set can be described thus: Inhibition of CYP2C9 in human liver microsomes using diclofenac as substrate incubated for 15 mins in presence of NADPH by LC/MS/MS analysis. The data set is classed as ADME, Microsome. (Liver microsomes are a subcellular fraction often used to study metabolism.)
Data set [6] concerns the target T3, Cytochrome P450 1A2 (Homo sapiens, UniProt P05177).
T3 sequence (P05177 whole entry): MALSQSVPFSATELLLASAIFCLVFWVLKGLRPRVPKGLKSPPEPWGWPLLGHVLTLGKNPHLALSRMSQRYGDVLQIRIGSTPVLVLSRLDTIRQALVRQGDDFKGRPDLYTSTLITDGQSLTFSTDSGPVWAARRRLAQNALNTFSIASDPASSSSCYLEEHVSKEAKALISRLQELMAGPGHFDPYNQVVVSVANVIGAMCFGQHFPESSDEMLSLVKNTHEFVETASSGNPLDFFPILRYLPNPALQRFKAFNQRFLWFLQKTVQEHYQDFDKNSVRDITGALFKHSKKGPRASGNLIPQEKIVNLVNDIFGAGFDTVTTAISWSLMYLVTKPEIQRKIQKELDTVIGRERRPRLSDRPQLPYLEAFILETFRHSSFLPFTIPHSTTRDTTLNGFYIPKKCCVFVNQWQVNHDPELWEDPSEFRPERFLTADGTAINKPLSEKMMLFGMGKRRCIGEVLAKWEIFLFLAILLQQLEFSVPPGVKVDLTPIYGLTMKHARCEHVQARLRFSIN
The data set can be described thus: Inhibition of CYP1A2 in human liver microsomes using phenacetin as substrate incubated for 15 mins in presence of NADPH by LC/MS/MS analysis. The data set is classed as ADME, Microsome.

For data set [7], the target named is T3, Cytochrome P450 1A2. Nature of the data set: Activation of CYP1A2 in human hepatocyte using phenacetin as substrate preincubated for 5 days followed by substrate addition and measured after 1 hr by LC-MS/MS analysis. The data set is classed as ADME, cell-based.
The target in the next data set is T4, CYP1A2 (Homo sapiens, UniProt P05177).
T4 sequence (P05177 whole entry): T3 sequence (P05177 whole entry)
Nature of the data set: Activation of CYP1A2 in human hepatocyte using phenacetin as substrate preincubated for 5 days followed by substrate addition and measured after 1 hr by LC-MS/MS analysis relative to control. The data set is classed as ADME, cell-based. As to conditions: hepatocytes, probe phenacetin, time 121 hrs.

Data set [8] can be described thus: Plasma protein binding in human assessed as unbound fraction incubated for 4 hrs by LC/MS/MS analysis. In kind it is ADME, cell-free.
The nature of data set [9]: Genotoxicity in Salmonella typhimurium TA98 by Ames test. In kind it is toxicity. As to conditions: salmonella enterica subsp. enterica serovar typhimurium.
The nature of data set [10]: Tmax in Sprague-Dawley rat at 3 mg/kg,po by LC-MS/MS analysis. The conditions noted are these: in vivo. The data set is classed as ADME, organism-based.
Data set [11] in a line: AUC (0 to infinity) in Sprague-Dawley rat at 3 mg/kg,po by LC-MS/MS analysis. In kind it is ADME, organism-based. Also on record: dose 3 mg/kg, route po. As to conditions: in vivo.
Data set [12] in a line: Tmax in Beagle dog at 3 mg/kg,po by LC-MS/MS analysis. The conditions noted are these: in vivo. The data set is classed as ADME, organism-based, Canis lupus familiaris.
The nature of data set [13]: Ratio of drug concentration in Beagle dog brain to plasma at 3 mg/kg, po by LC-MS/MS analysis. In kind it is ADME, organism-based, Canis lupus familiaris. The conditions noted are these: read-out: BPR.
Data set [14] has as its target Voltage-gated inwardly rectifying potassium channel KCNH2 (Homo sapiens, UniProt Q12809). Nature of the data set: Inhibition of hERG cardiac ion channel. In kind it is toxicity.
The target of data set [15] is GABA-A receptor; anion channel. The data set can be described thus: Inhibition of rat GABAA receptor. The data set is classed as protein-complex assay.
The target of data set [16] is T2, Cytochrome P450 2C9. Nature of the data set: […] of human CYP2C9 mediated drug metabolism incubated for 5 mins followed by NADPH addition measured after 1 hr by LC-UV/MS analysis relative to control. In kind it is ADME. The conditions noted are these: recombinant enzyme, 1.083 h, time 65 min.
Data set [17] relates to Rattus norvegicus. The data set can be described thus: Antipsychotic activity in amphetamine-induced hyperlocomotion activity in rat assessed as minimum effective dose at 1 administered orally preincubated for 30 mins followed by amphetamine addition and measured after 60 mins by open field test. In kind it is functional. The conditions noted are these: 1.5 h, route po, time 90 min, read-out: MED.

In data set [18] the test system is Rattus norvegicus. The data set can be described thus: Antipsychotic activity in amphetamine-induced hyperlocomotion activity in rat assessed as reversal of amphetamine-induced hyperlocomotion at 1 to 10 mg/kg, po preincubated for 30 mins followed by amphetamine addition and measured after 60 mins by open field test relative to control. The data set is classed as functional. The conditions noted are these: dose 1-10 mg/kg, time 90 min, 1.5 h.

Data set [19] can be described thus: Terminal brain concentration in rat model of amphetamine-induced hyperlocomotion activity at 1 to 10 mg/kg, po measured after 1.5 hrs. The data set is classed as ADME, organism-based. As to conditions: dose 1-10 mg/kg, read-out: Ct.
Data set [20] can be described thus: Terminal unbound brain concentration in rat model of amphetamine-induced hyperlocomotion activity at 1 to 10 mg/kg, po measured after 1.5 hrs. The data set is classed as ADME, organism-based. As to conditions: in vivo, dose 1-10 mg/kg.
Data set [21] in a line: Toxicity in rat assessed as effect on somatomotor parameters at 56.6 mg/kg, po measured after 6 hrs by Irwin test. As to conditions: in vivo. In kind it is organism-based.
Data set [22] in a line: Volume of distribution at steady state in Cynomolgous monkey at 0.2 mg/kg,iv by LC-MS/MS analysis. As to conditions: cynomolgus monkey, in vivo, read-out: Vdss.

T2 sequence (P11712 whole entry): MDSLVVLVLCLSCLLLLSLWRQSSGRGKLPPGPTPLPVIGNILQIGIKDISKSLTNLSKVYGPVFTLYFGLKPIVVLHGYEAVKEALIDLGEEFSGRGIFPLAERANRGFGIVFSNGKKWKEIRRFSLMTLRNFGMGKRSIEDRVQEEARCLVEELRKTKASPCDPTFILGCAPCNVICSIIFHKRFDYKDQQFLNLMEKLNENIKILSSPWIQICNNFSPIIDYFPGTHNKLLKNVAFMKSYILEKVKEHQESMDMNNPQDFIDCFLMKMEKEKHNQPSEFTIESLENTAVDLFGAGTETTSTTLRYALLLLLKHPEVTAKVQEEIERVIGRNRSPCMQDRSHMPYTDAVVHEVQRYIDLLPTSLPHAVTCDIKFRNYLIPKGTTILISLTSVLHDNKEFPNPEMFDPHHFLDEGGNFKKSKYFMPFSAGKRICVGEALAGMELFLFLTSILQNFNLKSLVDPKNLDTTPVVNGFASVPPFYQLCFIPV
Sequence of Voltage-gated inwardly rectifying potassium channel KCNH2 (Q12809 whole entry): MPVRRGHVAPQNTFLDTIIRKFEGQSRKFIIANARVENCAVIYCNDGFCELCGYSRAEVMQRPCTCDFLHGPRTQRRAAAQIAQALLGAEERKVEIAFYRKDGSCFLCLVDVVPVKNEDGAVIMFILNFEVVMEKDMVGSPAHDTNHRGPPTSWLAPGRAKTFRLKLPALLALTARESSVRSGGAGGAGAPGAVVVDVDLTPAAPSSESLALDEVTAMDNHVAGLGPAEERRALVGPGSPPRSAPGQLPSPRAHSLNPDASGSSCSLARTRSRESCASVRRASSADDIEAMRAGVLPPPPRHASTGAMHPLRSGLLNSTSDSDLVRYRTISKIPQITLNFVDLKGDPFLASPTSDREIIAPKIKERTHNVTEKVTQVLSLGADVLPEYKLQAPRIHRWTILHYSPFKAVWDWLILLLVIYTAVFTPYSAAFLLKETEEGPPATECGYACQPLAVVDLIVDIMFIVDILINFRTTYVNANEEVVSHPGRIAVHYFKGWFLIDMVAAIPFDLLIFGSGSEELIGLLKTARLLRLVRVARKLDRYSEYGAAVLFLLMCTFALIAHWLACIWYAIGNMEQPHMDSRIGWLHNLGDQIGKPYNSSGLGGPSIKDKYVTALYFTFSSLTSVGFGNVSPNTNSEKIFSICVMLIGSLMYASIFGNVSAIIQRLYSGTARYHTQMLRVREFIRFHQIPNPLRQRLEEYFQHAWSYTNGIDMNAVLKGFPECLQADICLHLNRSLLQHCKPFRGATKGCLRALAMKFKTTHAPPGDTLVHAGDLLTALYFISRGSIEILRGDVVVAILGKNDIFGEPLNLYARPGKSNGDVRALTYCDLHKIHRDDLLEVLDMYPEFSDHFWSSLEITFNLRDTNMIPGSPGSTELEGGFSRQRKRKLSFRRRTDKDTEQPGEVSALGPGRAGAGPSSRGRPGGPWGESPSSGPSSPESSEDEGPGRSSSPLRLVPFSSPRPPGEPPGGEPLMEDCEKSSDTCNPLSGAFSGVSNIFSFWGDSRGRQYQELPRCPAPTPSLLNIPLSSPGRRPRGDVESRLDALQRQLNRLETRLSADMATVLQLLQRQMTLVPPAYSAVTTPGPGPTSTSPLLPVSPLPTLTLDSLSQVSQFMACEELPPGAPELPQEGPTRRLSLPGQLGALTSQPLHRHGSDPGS

The EC50 is the midpoint of the concentration-response curve. What is called IC50 is the midpoint of a concentration-inhibition curve. A word on the Emax: it is the size of the effect at its maximum, as opposed to the concentration needed. In general, fraction unbound refers to free concentration divided by total concentration. The Tmax is the time from dosing to the highest level. What is called AUC(0-inf) is the area under the concentration-time curve extrapolated to infinity. For `COc1ccc(CNC(=O)c2sc3nnc(C)c(C)c3c2N)cc1F`, the Vdss in [1] turned out to be 1.5 L/kg. The Activity in data set [2] was 68.7%; in the data set on CHO, 49%; in data set [9] it was “Non-Toxic”; on Cytochrome P450 2C9 [16], 3.5%; with Rattus norvegicus [18], 43.2%; in [21] it was “Non-Toxic”. Also, the results for the EC50 (in data set [3]; in [4]; at Cytochrome P450 1A2 [7]) were over 30 µM, over 30 µM and over 50 µM, respectively. Also, the IC50 on Cytochrome P450 2C9 [5] is over 30 µM; at Cytochrome P450 1A2 [6] it was over 30 µM; in data set [14] it was over 33 µM; in data set [15], 1.2 µM. Besides, the Emax at 1 h on CYP1A2 was at most 1%. In addition, the fraction unbound at 4 h in [8] stood at 0.054. For the same molecule, the values for the Tmax in [10] and in data set [12] were 1.5 h and 0.75 h, respectively. Further, the AUC(0-inf) in data set [11] is 3.8 µM·h. Further, in [13], the Kp was 1. The minimal effective dose with Rattus norvegicus [17] came out at 10 mg/kg. Besides, the concentration at 1.5 h in data set [19] is 560 nM. Also, in [20], the “Drug uptake(free)” value came to 0.02 µM. In data set [22], the Vd was determined as 0.88 L/kg.
